A short description of series [1]: Microsome incubation, metabolic stability (human). To be noted: for MAB (human): maximal achievable bioavailability = 1-E, extrapolated from intrinsic clearance; for microsomal CLint at 10 μM: pH 7.4, human liver microsomes 2.0 mg prot/mL, test compound 10 μM, 37° C., read-out: Intrinsic clearance (human). Format: in vitro ADME. As for the experimental part: The compounds of formula I of the present invention are further characterized by high metabolic stability. This parameter is a prerequisite for good bioavailability, which is necessary to obtain medicaments with acceptable in-vivo activity. The metabolic stability has been tested by the following method:
Incubation mixtures consisted of liver microsomes (rat 1.0 mg prot/mL or human 2.0 mg prot/mL), test compound 10 μM, MgCl2 (3.3 mM), and an NADPH regenerating system consisting of glucose-6-phosphate dehydrogenase, NADPH and glucose-6-phosphate (equivalent to 1 mM NADPH) in a total volume of 1.0 mL of potassium phosphate buffer 100 mM pH 7.4. Reactions were initiated by addition of the NADPH regenerating system at 37° C. At the time of 1, 5, 9, 13, 17, 21, 25, and 29 min a 5 μL aliquot was directly analysed on a HPLC-MS/MS system consisting of a HP 1100 quaternary pump with degasser and a PE-Sciex API-2000 MS/MS spectrometer. The analytical column was a Waters Symmetry Shield RP8 (2.1*50 mm with a […] particle size). A polarity non linear gradient from phase A (MeOH/Ac. Form. 1% 20/80) to phase B (MeOH) was applied for a total run time of 2 minutes at a flow rate of 0.25 mL/min. The PE-Sciex API-2000 MS/MS spectrometer was used for detection of the parent compound. In vivo metabolic clearance was predicted according to published procedures [Houston, Biochem. Pharmacol. 47:1469-1479 (1994)]. In brief, the intrinsic clearance (Clearance, see table below) is calculated from the measured in vitro half-life taking into account incubation volume and microsomal protein used for the in vitro incubation. The intrinsic clearance is expressed in terms of μl/min/mg microsomal protein. For in vivo extrapolations, the hepatic extraction ratio (E) was calculated. Here it is reported the % MAB value which is equal to 1-E. The MAB (maximal achievable bioavailability) values express the maximal bioavailability that one can achieve with the given clearance values.

Series [2] can be described thus: Microsome incubation, metabolic stability (mouse). Format: in vitro ADME. To be noted: for MAB (mouse): maximal achievable bioavailability = 1-E, extrapolated from intrinsic clearance; for microsomal CLint at 10 μM: pH 7.4, liver microsomes, test compound 10 μM, 37° C., read-out: Intrinsic clearance (mouse).
A short description of series [3]: THESA assay, thermodynamic solubility. Conditions: 22.5 °C, aqueous buffer, thermodynamic from solid; 50 mM phosphate buffer, room temperature (22.5±1° C.). The class given is physicochemical. Here is the method:
In addition, the compounds of the present invention have been tested in a THESA assay for determination of the thermodynamic solubility.
Approximately 2 mg of each compound was added in excess to a 50 mM phosphate buffer, at room temperature (22.5±1° C.). Each sample was placed in a microanalysis tube, which was sonicated for 1 h and agitated for 2 h. All suspensions were left overnight. At the next day all pHs were measured with a pH-meter and the samples filtered with a micronic filterplate (MSGVN2250) to separate the solid material from the solution. Then, all solutions were analyzed by HPLC. The calibration line was established by different concentrations of the compound in DMSO. From this regression equation the solubility of the compound was determined.

Values after ≈ are worked out from the molar mass of the structure shown.

On to `CC(O)(C(=O)NCC(F)(F)C(F)(F)F)C(=O)N[C@H]1CN(CCCC(F)(F)F)c2ccccc2NC1=O` (single isomer, unassigned) [Example 6, (R or S)-2-Hydroxy-2-methyl-N-[(S)-4-oxo-1-(4,4,4-trifluoro-butyl)-2,3,4,5-tetrahydro-1H-benzo[b][1,4]diazepin-3-yl]-N′-(2,2,3,3,3-pentafluoro-propyl)-malonamide and (S or R)-2-Hydroxy-2-methyl-N-[(S)-4-oxo-1-(4,4,4-trifluoro-butyl)-2,3,4,5-tetrahydro-1H-benzo[b][1,4]diazepin-3-yl]-N′-(2,2,3,3,3-pentafluoro-propyl)-malonamide], for which, in series [1], the “MAB (human)” value was 49.4% and the microsomal CLint at 10 μM was determined as 15.9 µL/min/mg. Further, in series [2], the “MAB (mouse)” value was 25.0% and the microsomal CLint at 10 μM came to 94.9 µL/min/mg. The same compound showed a solubility (thermodynamic) in series [3] of 124 µg/mL (≈ 232 µM).
Taken in the same sequence, the figures for `CC(O)(C(=O)NCC(F)(F)C(F)(F)F)C(=O)N[C@H]1CN(C(=O)OCCO)c2ccccc2N(CCO)C1=O` (single isomer, unassigned) [Example 14, (S)-5-(2-Hydroxy-ethyl)-3-[(S or R)-2-hydroxy-2-(2,2,3,3,3-pentafluoro-propylcarbamoyl)-propionylamino]-4-oxo-2,3,4,5-tetrahydro-benzo[b][1,4]diazepine-1-carboxylic acid 2-hydroxy-ethyl ester] were 53.3%, 13.6 µL/min/mg, 72.1%, 12.3 µL/min/mg and 5180 µg/mL (≈ 9320 µM).
For the compound `CC(O)(C(=O)NCC(F)(F)C(F)(F)F)C(=O)N[C@H]1CN(CCO)c2ccccc2N(CC(F)(F)F)C1=O` (single isomer, unassigned) [Example 8, (R or S)-2-Hydroxy-N-[(S)-5-(2-hydroxy-ethyl)-2-oxo-1-(2,2,2-trifluoro-ethyl)-2,3,4,5-tetrahydro-1H-benzo[b][1,4]diazepin-3-yl]-2-methyl-N′-(2,2,3,3,3-pentafluoro-propyl)-malonamide], the “MAB (human)” value in series [1] is 100.0%. In addition, in series [2], the “MAB (mouse)” value is 37.5% and the microsomal CLint at 10 μM is 52.7 µL/min/mg. This compound also yielded a solubility (thermodynamic) in series [3] of 2670 µg/mL (≈ 4850 µM).
Consider `CC(O)(C(=O)NCC(F)(F)C(F)(F)F)C(=O)N[C@H]1CN(CCC(F)(F)F)c2ccccc2NC1=O` (single isomer, unassigned) [Example 5, (R or S)-2-Hydroxy-2-methyl-N-[(S)-4-oxo-1-(3,3,3-trifluoro-propyl)-2,3,4,5-tetrahydro-1H-benzo[b][1,4]diazepin-3-yl]-N′-(2,2,3,3,3-pentafluoro-propyl)-malonamide and (S or R)-2-Hydroxy-2-methyl-N-[(S)-4-oxo-1-(3,3,3-trifluoro-propyl)-2,3,4,5-tetrahydro-1H-benzo[b][1,4]diazepin-3-yl]-N′-(2,2,3,3,3-pentafluoro-propyl)-malonamide], for which, in series [1], the “MAB (human)” value was 45.5% and the microsomal CLint at 10 μM is 18.6 µL/min/mg. In series [2], the “MAB (mouse)” value was 10.8% and the microsomal CLint at 10 μM was 262 µL/min/mg. In addition, the thermodynamic solubility in series [3] stood at 67 µg/mL (≈ 129 µM).

What is called thermodynamic solubility is the concentration in solution at equilibrium with solid.

Values taken from patent publication US7414049B2, “4-oxo-2,3,4,5-tetrahydro-benzo[b][1,4]diazepine derivatives” (Hoffmann-La Roche Inc., priority 2006, dated 2008).
